Test system: 855422-203-R-J1-PDC complex spheroids, viability
Test: Anticancer human tumor 855422-203-R-J1-PDC patient-derived bladder carcinoma cell line growth inhibition [CLK]
Conditions: for IC50: curve of first compound; for viability, T/C: stronger effect = lower value; active = viability on the fitted dose curve at most 10% of control; inactive = the rest
Text: A high-throughput screen of multi-cell type tumor spheroids was designed to identify active combinations of […] and targeted small molecules. Complex spheroids include a stromal component modeled by human endothelial cells (HUVEC) and fibroblasts modeled by human mesenchymal stem cells (MSCs). The concentration ranges selected for each drug and investigational agent were based upon clinically achievable concentrations if the clinical Cmax of the agent was known.
Compounds. The drugs and investigational agents: cirtuvivint (SM08502; NSC835563), CC-671 (NSC850746), vemurafenib (NSC761431), tapotoclax (NSC804041), sotorasib (NSC818433), adagrasib (NSC831453), MRTX-1133 (NSC836407), BAY2416964 (NSC825713), copanlisib (NSC816437), inavolisib (NSC800729), abemaciclib (NSC768073), osimertinib (NSC779217), entinostat (NSC756642), eltanexor (KPT-8602, NSC794443), venetoclax (NSC766270), ceralasertib (NSC777638), bortezomib (NSC756655), olaparib (NSC753686), talazoparib (NSC767125), alisertib (NSC759677), peposertib (NSC802822), gemcitabine (NSC613327), 5-fluorouracil (NSC19893), SN-38 (NSC673596), oxaliplatin (NSC266046), paclitaxel (NSC125973), and doxorubicin (NSC123127), were obtained from the National Cancer Institute (NCI) Developmental Therapeutics Program Chemical Repository. The FDA-approved anticancer drug set is available from the Developmental Therapeutics Program at https://dtp.cancer.gov/organization/dscb/obtaining/available plates.htm. […] The stock solutions were prepared in dimethyl sulfoxide (DMSO, Sigma-Aldrich, St. Louis, MO, cat. D2650), except for the platinum complexes which were prepared in saline (Quality Biological, Gaithersburg, MD, cat. 114-055-101), at 800-fold the tested concentration and stored at -70 degrees C prior to their use. All drugs and investigational agents were tested over a range starting from a high concentration at or near the clinical Cmax and decreasing in half-log increments. If the clinical Cmax for an agent had not been determined, the highest concentration tested was 10 microM.
Cell Culture. All cells were maintained in an incubator at 37 degrees C and 5% CO2 with 95% humidity. The PDC lines were cultured according to standard operating procedures established by the NCI PDMR. Briefly, all PDCs were thawed and cultured in Matrigel-coated flasks prepared with a working solution of 1X Ham's F-12 nutrient mix, without supplementation (Invitrogen, Waltham, MA, cat. 11765054), 100 U/mL penicillin-streptomycin (Invitrogen, cat. 15140122), and 2.5% Matrigel (Corning Inc., Corning, NY, cat. 354248) for the first three passages. The 947758-054-R-J2-PDC line was cultured in 6B/Colon 1A media, which includes advanced DMEM/F-12 (Thermo Fisher Scientific, cat. 12634028), 10 mM HEPES (Thermo Fisher Scientific, cat. 15630080), 1X GlutaMAX supplement (Thermo Fisher Scientific, cat. 35050061), 0.1 mg/mL primocin (InvivoGen, cat. ant-pm-2), 10% defined fetal bovine serum, heat inactivated (HyClone Laboratories Inc., cat. SH30070.03HI), 1.25 mM N-Acetyl-L-cysteine (Sigma-Aldrich, cat. A9165), 10 mM nicotinamide (Sigma-Aldrich, cat. N0636), 1X B-27 supplement (Thermo Fisher Scientific, cat. 17504044), 1X N-2 supplement (Thermo Fisher Scientific, cat. 17502048), and 10 microM Y-27632 dihydrochloride (Tocris Bioscience, cat. 1254). The 876862-298-R-J1-PDC was cultured in 6E media, which includes all 6B/Colon 1A media components plus 50% L-WRN conditioned media (ATCC, cat. CRL-3276), 50 ng/mL recombinant human EGF recombinant protein (hEGF; Thermo Fisher Scientific, cat. PHG0311), 10 ng/mL recombinant human fibroblast growth factor 10 (hGFG-10; PeproTech, cat. 100-26), 1 ng/mL recombinant human fibroblast growth factor 2 (hFGF-2; PeproTech, cat. 100-18B), and 1 µM prostaglandin E2 (PGE2; Tocris, cat. 2296). The 227483-062-R1-J1-PDC line was cultured in Panc media, containing all 6E components except hFGF-2, with the addition of 500 nM SB-431542 (Selleckchem, cat. S1067) and 10 nM gastrin (Tocris, cat. 3006). […]
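Also: spheroids exposed to drugs for seven days before readout.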
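For viability, T/C in this document: 100% = DMSO vehicle control wells.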

Cn1ncnc1[C@H]1c2n[nH]c(=O)c3cc(F)cc(c23)N[C@@H]1c1ccc(F)cc1 + CN1CCN(c2cc(C(=O)Nc3cc4cc(-c5cnn(C)c5)ccc4cn3)ccn2)CC1
< 0.316 nM: IC50 (second compound 0.316 µM) | IC50 (second compound 1 µM) | IC50 (second compound 3.16 µM) | IC50 (second compound 10 µM)
active: viability, T/C (second compound 0.316 µM, first compound 0.000316 µM) 5.88% | viability, T/C (second compound 0.316 µM, first compound 0.001 µM) 9.73% | viability, T/C (second compound 0.316 µM, first compound 0.00316 µM) 10.4% | viability, T/C (second compound 0.316 µM, first compound 0.01 µM) 9.1% | viability, T/C (second compound 0.316 µM, first compound 0.0316 µM) 9.56% | viability, T/C (second compound 0.316 µM, first compound 0.1 µM) 8.15% | viability, T/C (second compound 1 µM, first compound 0.000316 µM) 0.17% | viability, T/C (second compound 1 µM, first compound 0.001 µM) 0.23% | viability, T/C (second compound 1 µM, first compound 0.00316 µM) 0.15% | viability, T/C (second compound 1 µM, first compound 0.01 µM) 0.12% | viability, T/C (second compound 1 µM, first compound 0.0316 µM) 4.07% | viability, T/C (second compound 1 µM, first compound 0.1 µM) 0.15% | viability, T/C (second compound 3.16 µM, first compound 0.000316 µM) 0.48% | viability, T/C (second compound 3.16 µM, first compound 0.001 µM) 0.5% | viability, T/C (second compound 3.16 µM, first compound 0.00316 µM) 0.41% | viability, T/C (second compound 3.16 µM, first compound 0.01 µM) 0.33% | viability, T/C (second compound 3.16 µM, first compound 0.0316 µM) 0.23% | viability, T/C (second compound 3.16 µM, first compound 0.1 µM) 0.84% | viability, T/C (second compound 10 µM, first compound 0.000316 µM) 0.23% | viability, T/C (second compound 10 µM, first compound 0.001 µM) 1.99% | viability, T/C (second compound 10 µM, first compound 0.00316 µM) 0.17% | viability, T/C (second compound 10 µM, first compound 0.01 µM) 0.22% | viability, T/C (second compound 10 µM, first compound 0.0316 µM) 0.17% | viability, T/C (second compound 10 µM, first compound 0.1 µM) 0.18%
> 100 nM: IC50 (second compound 0.0316 µM) | IC50 (second compound 0.1 µM)
inactive: viability, T/C (second compound 0.0316 µM, first compound 0.000316 µM) 97.4% | viability, T/C (second compound 0.0316 µM, first compound 0.001 µM) 101% | viability, T/C (second compound 0.0316 µM, first compound 0.00316 µM) 110% | viability, T/C (second compound 0.0316 µM, first compound 0.01 µM) 104% | viability, T/C (second compound 0.0316 µM, first compound 0.0316 µM) 113% | viability, T/C (second compound 0.0316 µM, first compound 0.1 µM) 104% | viability, T/C (second compound 0.1 µM, first compound 0.000316 µM) 79.5% | viability, T/C (second compound 0.1 µM, first compound 0.001 µM) 92.6% | viability, T/C (second compound 0.1 µM, first compound 0.00316 µM) 103% | viability, T/C (second compound 0.1 µM, first compound 0.01 µM) 87.4% | viability, T/C (second compound 0.1 µM, first compound 0.0316 µM) 95.9% | viability, T/C (second compound 0.1 µM, first compound 0.1 µM) 83.8%

C=CC(=O)Nc1cc(Nc2nccc(-c3cn(C)c4ccccc34)n2)c(OC)cc1N(C)CCN(C)C + CNC(=O)c1ccc(Nc2nc(OC3CCCC3)c3c(-c4ccc5nc(C)oc5c4)c[nH]c3n2)c(OC)c1
> 300 nM: IC50 (second compound 0.0316 µM)
inactive: viability, T/C (second compound 0.0316 µM, first compound 0.000949 µM) 108% | viability, T/C (second compound 0.0316 µM, first compound 0.003 µM) 112% | viability, T/C (second compound 0.0316 µM, first compound 0.00949 µM) 109% | viability, T/C (second compound 0.0316 µM, first compound 0.03 µM) 97.1% | viability, T/C (second compound 0.0316 µM, first compound 0.0949 µM) 98.8% | viability, T/C (second compound 0.0316 µM, first compound 0.3 µM) 76.3% | viability, T/C (second compound 0.1 µM, first compound 0.000949 µM) 53.6% | viability, T/C (second compound 0.1 µM, first compound 0.003 µM) 33.9% | viability, T/C (second compound 0.1 µM, first compound 0.00949 µM) 29.3% | viability, T/C (second compound 0.1 µM, first compound 0.03 µM) 29.2% | viability, T/C (second compound 0.1 µM, first compound 0.0949 µM) 28.6% | viability, T/C (second compound 0.1 µM, first compound 0.3 µM) 22.4% | viability, T/C (second compound 0.316 µM, first compound 0.000949 µM) 21.3% | viability, T/C (second compound 0.316 µM, first compound 0.003 µM) 22.4% | viability, T/C (second compound 0.316 µM, first compound 0.00949 µM) 19.1% | viability, T/C (second compound 0.316 µM, first compound 0.03 µM) 21.8% | viability, T/C (second compound 0.316 µM, first compound 0.0949 µM) 24% | viability, T/C (second compound 0.316 µM, first compound 0.3 µM) 20.1% | viability, T/C (second compound 1 µM, first compound 0.000949 µM) 19.4% | viability, T/C (second compound 1 µM, first compound 0.003 µM) 21% | viability, T/C (second compound 1 µM, first compound 0.00949 µM) 27.3% | viability, T/C (second compound 1 µM, first compound 0.03 µM) 23.5% | viability, T/C (second compound 1 µM, first compound 0.0949 µM) 22% | viability, T/C (second compound 1 µM, first compound 0.3 µM) 16.2% | viability, T/C (second compound 3.16 µM, first compound 0.000949 µM) 25.8% | viability, T/C (second compound 3.16 µM, first compound 0.003 µM) 23.1% | viability, T/C (second compound 3.16 µM, first compound 0.00949 µM) 20.8% | viability, T/C (second compound 3.16 µM, first compound 0.03 µM) 21.9% | viability, T/C (second compound 3.16 µM, first compound 0.0949 µM) 21.9% | viability, T/C (second compound 3.16 µM, first compound 0.3 µM) 16.5% | viability, T/C (second compound 10 µM, first compound 0.000949 µM) 19.7% | viability, T/C (second compound 10 µM, first compound 0.003 µM) 21.6% | viability, T/C (second compound 10 µM, first compound 0.00949 µM) 18.3% | viability, T/C (second compound 10 µM, first compound 0.03 µM) 19.1% | viability, T/C (second compound 10 µM, first compound 0.0949 µM) 23.3% | viability, T/C (second compound 10 µM, first compound 0.3 µM) 21.9%
1.17 nM: IC50 (second compound 0.1 µM)
< 0.949 nM: IC50 (second compound 0.316 µM) | IC50 (second compound 1 µM) | IC50 (second compound 3.16 µM) | IC50 (second compound 10 µM)
